Reference: patent US12642805B2, “Use of oxygenated cholesterol sulfates for treating at least one of insulin resistance, diabetes, and prediabetes” (Medicis Pharmaceutical Corporation, priority 2020, dated 2026)

Key:
Assay type in all cases: in vivo, rat
[1] = quantitative whole body autoradiography tissue distribution, oral, Sprague Dawley rats; conditions: 75 mg/kg oral
Source text: No [1^4C]-25HC3S-derived radioactivity was detected in the eye (lens).

[2] = plasma pharmacokinetics of radioactivity after single oral (gavage) dose; conditions: rats, 75 mg/kg single oral (gavage)
Procedure: The terminal elimination phase T1/2 was 27.3 hours.

[3] = quantitative whole body autoradiography tissue distribution, intravenous, Sprague Dawley rats; conditions: 10 mg/kg intravenous
Procedure: (§1) Nine male Sprague Dawley rats (Group 1) were designated for the pharmacokinetic phase, 3 male Sprague Dawley rats (Group 2) for the excretion mass balance phase, and 7 male Sprague Dawley rats (Group 3) and 9 male Long Evans rats (Group 4) for the tissue distribution phase. All animals received a single intravenous dose of [1^4C]-25HC3S at 10 mg/kg and a target radioactivity of 225 μCi/kg. Blood samples were collected from all Group 1 animals at approximately 0.083, 0.25, 0.5, 1, 2, 4, 8, 12, 24, 48, and 72 hours post-dose. Urine and feces were collected from all Group 2 animals periodically through 168 hours post-dose. […] Following blood collection, animals were euthanized by CO2 inhalation and carcasses frozen in a dry ice/hexane bath for processing by quantitative whole body autoradiography. Whole blood, plasma, urine, feces, cage rinse, and cage wash were analyzed for total radioactivity by liquid scintillation counting.

[4] = quantitative whole body autoradiography tissue distribution, intravenous, Long Evans rats; conditions: 10 mg/kg intravenous
Procedure: as §1

[5] = plasma pharmacokinetics of radioactivity after single intravenous dose; conditions: rats, 10 mg/kg single intravenous bolus
Procedure: as §1

[6] = excretion mass balance after single intravenous dose; conditions: rats, 10 mg/kg intravenous, over 168 hours
Procedure: as §1

## C[C@H](CCCC(C)(C)O)[C@H]1CC[C@H]2[C@@H]3CC=C4[14CH2][C@@H](OS(=O)(=O)O)CC[C@]4(C)[C@H]3CC[C@]12C [[4-^14C]-25HC3S]
[1]
  Skin, thymus, prostate, and pituitary tissue concentrations: < 3000 ng equiv./g
  Uveal tract and brain concentrations: approximately 1000 ng equiv./g
  tissue Tmax: ≤ 6 h
  tissue:plasma ratio (AUClast), adrenal gland: 6.64
  tissue:plasma ratio (AUClast), liver: 6.96
  tissue:plasma ratio (AUClast), small intestine (wall): 15.4
  tissues in which radioactivity was detected: all tissues except the eye (lens)
[2]
  terminal elimination phase T1/2, plasma: 27.3 h
[3]
  T1/2 in plasma (QWBA phase): 44.3 h
  T1/2 in whole blood (QWBA phase): 52.2 h
  maximum plasma concentration (QWBA phase): 12,400 ng-equiv./g
  plasma:whole blood AUClast ratio: 0.79
  tissue:plasma ratio (AUClast), liver: 11.4
  tissue:plasma ratio (AUClast), small intestine (wall): 7.44
  tissues in which radioactivity was detected: all tissues except the eye (lens)
[4]; Long Evans (pigmented) rats
  time by which plasma and whole blood concentrations were below quantitation limit: ≤ 336 h
[4]; Long Evans rats
  binding to pigmented or non-pigmented skin or the uveal tract: no difference in binding to pigmented or non-pigmented skin or the uveal tract
  time by which concentrations in skin and uveal tract tissues were below quantitation limit: ≤ 168 h
[5]
  mean plasma C0 (radioactivity): 25,900 ng-equiv./g
[6]
  recovered radioactivity in feces: 83.0%
